Assay results reported in patent publication US12655379B2, “Device for evaluation of chemical substance and method for evaluation of chemical substance” (SHINKO CHEMICAL CO., LTD., priority 2017, dated 2026).

Key:
[1] = system: Caco-2 cells; assay: Perfusion test of first pass effect, small intestine compartment (Caco-2 single layer film in insert); conditions: 240 μL of 62.5 μg/mL substrate solution in insert, HBSS perfusion, sampled every 30 minutes for 180 minutes, LC-MS-MS, FIG. 19
Method: (§1) In the present example, small intestine epithelial cells and liver cells were disseminated in separate compartments, and a first pass effect of a chemical substance was evaluated by using a device in which the respective compartments were connected via a flow path system. In the device described with reference to FIG. 1, Caco-2 cells were disseminated as model cells of the small intestine epithelial cells, and HepG2-CYP3A4 cells obtained by a genetic manipulation to excessively develop CYP3A4 in HepG2 cells were disseminated as model cells of the liver cells. Thus, the first pass effects (absorption and metabolism) of the chemical substance on two types of cells (the small intestine epithelial cells and the liver cells) were simultaneously evaluated.
(§2) • a) Caco-2 Cell • i) 0.4 mL of cell suspension was added to an inner side (an apical side) of a porous membrane filter at a density of 0.5 to 5×10^5 cells/cm^2 (e.g., 0.6×10^5 cells/cm^2). • ii) 0.8 mL of medium was added to an outer side (a basal side) of the porous membrane filter. • iii) The cells were cultured in a carbon dioxide gas incubator (5% of CO2 at 37° C. under humidification conditions) for about 3 weeks. An apical-side medium and a basal-side medium were appropriately changed.
(§3) Prior to use in a test, an electric resistance of a single layer film was measured by using an electric resistance measuring device.

[2] = system: HepG2-CYP3A4 cells; assay: Perfusion test of first pass effect, liver compartment (HepG2-CYP3A4 cells downstream of Caco-2 insert); conditions: 240 μL of 62.5 μg/mL substrate solution in insert, HBSS perfusion, sampled every 30 minutes for 180 minutes, LC-MS-MS, FIG. 20
Method: as §1, §2, §3

SMILES: Cc1ncc2n1-c1ccc(Cl)cc1C(c1ccccc1F)=NC2 [midazolam, Midazolam]
- permeation amount of midazolam permeated through the Caco-2 single layer film [1]: successive increase
- permeation amount of midazolam [2]: successive increase
